The record followed here is patent publication US8268772B2, “Depot preparations” (Symrise AG, priority 2001, dated 2012).

The nature of data set [1]: Storage stability in soap formulation. In kind it is physicochemical. The note with it: stored in the dark about one month at room temperature. An excerpt:
(§1) (Amount after storage/Amount before storage)*100%=Storage stability [%]
The separate samples are then divided into portions.
The soap formulations A to F were stored in the dark for about one-month at room temperature.

Data set [2] is described as follows: Release rate during hair coloring (GC content after mixing developer mass with ammoniacal dye solution). The class given is physicochemical. Here is the method: To determine the hydrolysis rate the three depot preparations DP Example 8, DP Example 9 and DP Example 10 were added to the developer mass in a concentration of in each case 0.3%. The ammoniacal dye solution, which consists of 2 to 16% ammonia and/or substitutes such as, for example, alkanolamines, in particular monoethanolamine, water, thickeners, emulsifier, bodying agents, reactive dyes, solvents, flexing agents, stabilizers and preservatives, is then added to the developer mass in the ratio 1:1. Samples are then taken from the hair dye solution at defined time intervals, neutralized and extracted with solvent, and the content of depot preparation and released aldehyde is determined by means of gas chromatography using an internal and external standard.

Data set [3] is described as follows: Storage stability in powder laundry detergent. The note with it: after one month storage.
Description: The storage stability of a fragrance or of a depot preparation is defined by the percentage of substance still present after storage. (Amount after storage/Amount before storage)*100%=Storage stability [%]
For the determination and for the comparison of the storage stability the depot preparation (DP) consisting of one or more acylals and the corresponding aldehydes (AL) are incorporated into separate samples. (SDP and SAL) of the same formulation of a consumer product, such as, for example, laundry detergent, shampoo or soap. The separate samples are then divided into portions. One portion of the sample SDP and SAL is subjected immediately to a suitable extraction and analytical measurement in order to determine the amount of depot preparation or aldehyde prior to storage. In the analytical investigation by, for example, gas chromatography, a suitable standard is used for quantification. The second portion is subjected to storage at elevated temperature for a defined period and then extracted and quantified using the same methods.
The laundry detergents A and B were used for washing or examined analytically both directly and after storage for four weeks.
Data set [4] in a line: Storage stability in hair colorant developer mass. In kind it is physicochemical. The protocol: as §1
The formulation of the developer mass typically comprises water, hydrogen peroxide, acids, such as, for example, phosphoric acid, citric acid etc., thickeners, emulsifiers, preservatives, solvents and further auxiliaries. 1% of DP Example 5 is added to the formulation of the developer mass.
The developer formulation, which comprises 1% of DP Example 5, is stored for one and a half months at room temperature.

Where [5] appears, read: 1 min after mixing developer mass (0.3% each DP) 1:1 with ammoniacal dye solution.
[6] abbreviates: 5 min after mixing developer mass (0.3% each DP) 1:1 with ammoniacal dye solution.
The mark [7] stands for this setting: 10 min after mixing developer mass (0.3% each DP) 1:1 with ammoniacal dye solution.
The mark [8] stands for this setting: 20 min after mixing developer mass (0.3% each DP) 1:1 with ammoniacal dye solution.
[9] abbreviates: 30 min after mixing developer mass (0.3% each DP) 1:1 with ammoniacal dye solution.

As to `CCCCCCCCCC(OC(=O)CCCCCC)OC(=O)CCCCCC` [DP Example 7, 1-(Heptanoyloxy)decyl heptanoate], the “Storage stability [%]” value in data set [1] is given as 95%.
The same measure, in the same setting: for `O=Cc1ccccc1` [Benzaldehyde, reference compound] the value was 45%.
As for `CC1=CC(C)C(C=O)CC1` (stereo not shown) [Vertocitral, reference compound], the “Relative GC content [%]” value in data set [2] (setting [5]) is reported as 2.1%; in data set [2] (setting [6]) it was 33.6%; in data set [2] (setting [7]), 33.6%; in data set [2] (setting [8]), 19.3%; in data set [2] (setting [9]), 15.7%.
With `CCCCCCCCCC(C)C(OC(C)=O)OC(C)=O` (stereo not shown) [DP Example 10, 1-(Acetyloxy)-2-methylundecyl acetate], the “Relative GC content [%]” value turned out to be 48.2% in data set [2] (setting [5]); 5.1% in data set [2] (setting [6]); 2.0% in data set [2] (setting [7]); 0.0% in data set [2] (setting [8]); 0.0% in data set [2] (setting [9]).
For the compound `CCCCCCC=O` [Aldehyde C7, heptanal, reference compound], the “Relative GC content [%]” value in data set [2] (setting [5]) is listed as 1.4%; in data set [2] (setting [6]), 17.1%; in data set [2] (setting [7]), 19.3%; in data set [2] (setting [8]), 12.2%; in data set [2] (setting [9]) it was 11.4%.
The compound `CCCC(=O)OC(OC(=O)CCC)C1CC=C(CCC=C(C)C)CC1` (stereo not shown) [DP Example 3, (Butyryloxy) [4-(4-methyl-3-pentenyl)-3-cyclohexen-1-yl]methyl butyrate] yielded a Storage stability in data set [3] of 93%.
Regarding `CC(=O)OC(OC(C)=O)C1CCC(C)=CC1C` (stereo not shown) [DP Example 9, (Acetyloxy)(2,4-dimethyl-3-cyclohexen-1-yl)methyl acetate], the “Relative GC content [%]” value in data set [2] (setting [5]) is given as 28.9%; in data set [2] (setting [6]), 2.5%; in data set [2] (setting [7]), 0.5%; in data set [2] (setting [8]), 0.0%; in data set [2] (setting [9]), 0.0%.
In the case of `CC(C)=CCCC1=CCC(C=O)CC1` (stereo not shown) [Vertomugal, 1-Formyl-4-(4-methyl-3-pentenyl)-3-cyclohexene, reference compound], in data set [3], the Storage stability was 34%.
Regarding `CCCCCCCCCC(C)C=O` (stereo not shown) [2-Methylundecanal, reference compound], the “Relative GC content [%]” value in data set [2] (setting [5]) is recorded as 2.8%; in data set [2] (setting [6]), 32.8%; in data set [2] (setting [7]) it was 47.1%; in data set [2] (setting [8]) it was 20.7%; in data set [2] (setting [9]), 16.4%.
Turning to `CCCCCCCCCC=O` [Aldehyde C10, Decanal, reference compound], in data set [1], the “Storage stability [%]” value came to 32%.
Still for that read-out and setting: for `CCCC(=O)OC(CCc1ccc(C(C)(C)C)cc1)OC(=O)CCC` [DP Example 6, 3-(4-tert-Butylphenyl)-1-(butyryloxy)propyl butyrate] the value was 93%.
`CCCC(=O)OC(OC(=O)CCC)c1ccccc1` [DP Example 5, (Butyryloxy)(phenyl)methyl butyrate]: in data set [1], the “Storage stability [%]” value worked out at 93%. The “Stability [%] 0 days” value in data set [4] (1% in developer mass, room temperature, 0 days) is reported as 100%. Moreover, the “Stability [%] 13 days” value in data set [4] (1% in developer mass, room temperature, 13 days) was 100%. For the same compound, the “Stability [%] 28 days” value in data set [4] (1% in developer mass, room temperature, 28 days) is given as 98%. Also, the “Stability [%] 42 days” value in data set [4] (1% in developer mass, room temperature, 42 days) was determined as 100%. In data set [4] (developer mass, one and half months at room temperature), the “color, odor and analytical stability” value was “color, odor and analytically stable”.
`CCCCCCC(OC(C)=O)OC(C)=O` [DP Example 8, 1-(Acetyloxy)heptyl acetate]: the “Relative GC content [%]” value in data set [2] (setting [5]) was 22.9%; in data set [2] (setting [6]), 0.0%; in data set [2] (setting [7]), 0.0%; in data set [2] (setting [8]), 0.0%; in data set [2] (setting [9]), 0.0%.
Take `CC(C)(C)c1ccc(CCC=O)cc1` [Bourgeonal, 4-tert-Butyldihydrocinnamaldehyde, reference compound]: the “Storage stability [%]” value in data set [1] is reported as 27%.
